According to publication PMC4992173, “Divergent synthesis and identification of the cellular targets of deoxyelephantopins” (Nature Communications, 2016):

Experiments:
[1] = biological target: recombinant IKKβ (Homo sapiens, UniProt O14920); experiment: Labeling of recombinant IKK-β with probe 24c; format: binding; conditions: 10 µM 24c
[2] = biological target: T1, endogenous PPARγ (Homo sapiens, UniProt P37231); experiment: Targeted competitive proteomics of endogenous PPARγ in Caco-2 cells; format: cell-based; conditions: Caco-2 cells treated in situ with 20 μM, lysate then 10 μM 24c; n=6
T1 construct: endogenous PPARγ was successfully enriched and quantified from the DMSO-treated Caco-2 cells; endogenous in cells; host or cells: Caco-2
T1 sequence (P37231 29-505 limits assumed): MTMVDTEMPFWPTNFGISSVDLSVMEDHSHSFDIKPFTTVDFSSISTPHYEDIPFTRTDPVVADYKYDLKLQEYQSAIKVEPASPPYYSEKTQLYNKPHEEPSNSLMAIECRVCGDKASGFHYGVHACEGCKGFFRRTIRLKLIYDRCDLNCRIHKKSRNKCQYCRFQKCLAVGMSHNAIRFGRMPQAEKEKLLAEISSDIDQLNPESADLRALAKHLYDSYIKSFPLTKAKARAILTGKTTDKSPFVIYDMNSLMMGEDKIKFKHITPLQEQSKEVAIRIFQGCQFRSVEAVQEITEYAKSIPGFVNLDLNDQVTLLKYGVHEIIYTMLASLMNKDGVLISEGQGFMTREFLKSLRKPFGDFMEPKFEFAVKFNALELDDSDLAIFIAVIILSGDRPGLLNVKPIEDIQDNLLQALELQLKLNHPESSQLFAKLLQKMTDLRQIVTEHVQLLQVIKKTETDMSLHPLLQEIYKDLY
Method: On the basis of the reported interaction between deoxyelephantopin and PPARγ and because MCF7 cells are known to express very low levels of this protein, we investigated in a separate experiment whether deoxyelephantopin indeed covalently binds PPARγ. The recombinant transcription factor was spiked into MCF7 lysates to 30 nM final concentration and successfully enriched by the methacrylate ester probe 24c, as evidenced from LC–MS/MS-based label-free quantification (LFQ)[48]. […] Gratifyingly, endogenous PPARγ was successfully enriched and quantified from the DMSO-treated Caco-2 cells, whereas DEP pretreatment efficiently competed PPARγ enrichment (>95%; Fig. 7a). […]
Figure 7 Identification of PPARγ as target of deoxyelephantopin and screening of DEP derivatives as PPARγ antagonists. (a) Quantification of endogenous PPARγ enriched from Caco-2 cells using 10 μM 24c following in situ treatment with DEP (20 μM) or DMSO (normalized LFQ values±s.d. are shown; n=6). […] Quantification of fluorescence intensity in the competitive screening for PPARγ antagonists (bottom; values±s.d. are shown; n=3).
Samples were analyzed by LC-MS/MS (see below) and the MS data was processed with […]
Samples were analyzed by LC-MS/MS (see below) using inclusion lists containing m/z and charge of the expected peptides of indicated proteins (see Figure 6c γ . was processed with MaxQuant (see below). […]

Sequence of recombinant IKKβ (O14920 whole entry): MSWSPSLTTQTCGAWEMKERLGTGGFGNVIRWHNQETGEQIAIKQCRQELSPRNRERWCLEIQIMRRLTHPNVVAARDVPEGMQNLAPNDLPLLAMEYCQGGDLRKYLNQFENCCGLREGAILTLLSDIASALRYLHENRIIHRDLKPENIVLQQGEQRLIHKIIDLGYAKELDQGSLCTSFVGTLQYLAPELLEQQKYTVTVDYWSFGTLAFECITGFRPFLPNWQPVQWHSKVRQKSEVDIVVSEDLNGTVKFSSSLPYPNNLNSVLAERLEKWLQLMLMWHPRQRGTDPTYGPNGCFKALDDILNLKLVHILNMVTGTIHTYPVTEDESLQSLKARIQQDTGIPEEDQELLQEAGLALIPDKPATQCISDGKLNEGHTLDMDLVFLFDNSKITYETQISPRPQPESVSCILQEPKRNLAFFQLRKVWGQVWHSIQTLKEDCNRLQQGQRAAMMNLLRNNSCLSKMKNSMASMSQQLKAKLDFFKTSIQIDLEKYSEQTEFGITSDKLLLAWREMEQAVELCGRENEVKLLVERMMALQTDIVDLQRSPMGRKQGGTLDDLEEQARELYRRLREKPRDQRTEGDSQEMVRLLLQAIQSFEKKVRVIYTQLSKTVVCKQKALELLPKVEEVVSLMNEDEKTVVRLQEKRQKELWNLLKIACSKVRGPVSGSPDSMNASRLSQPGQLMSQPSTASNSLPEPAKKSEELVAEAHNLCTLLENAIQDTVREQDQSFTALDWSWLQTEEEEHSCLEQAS

C#CCC[C@H](OC(=O)C(=C)C)[C@H]1C(=C)C(=O)O[C@@H]1c1ccccc1 [24c]
covalent interaction with recombinant IKKβ [1]: no evidence of covalent interaction

C=C(C)C(=O)O[C@H]1CC2=C[C@@H](C/C(C)=C/[C@H]3OC(=O)C(=C)[C@H]13)OC2=O [deoxyelephantopin]
competition of endogenous PPARγ enrichment by 24c [2]: > 95%
